Assay results reported in PubChem BioAssay AID1963421 (Molecular Pharmacology Branch, DTP, NCI, 2024).

System: 519858-162-T-J1-PDC complex spheroid growth, % test/control
Assay: Anticancer human tumor 519858-162-T-J1-PDC patient-derived colon adenocarcinoma cell line growth inhibition [Asc]
Settings: for viability, T/C: stronger effect = lower value
In short: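 Complex spheroids combining tumor cells with HUVEC endothelial cells and human MSCs, at 37 degrees C, 5% CO2; agents tested alone or combined, half-log dilutions from at or near clinical Cmax, or 10 microM if Cmax unknown.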

[1] = curve of first compound, second compound 0.00316 µM
[2] = curve of first compound, second compound 0.01 µM
[3] = curve of first compound, second compound 0.0316 µM
[4] = curve of first compound, second compound 0.1 µM
[5] = curve of first compound, second compound 0.316 µM
[6] = curve of first compound, second compound 1 µM
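Further: seven day drug exposure begun three days after spheroid seeding.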
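Wherever viability, T/C is given: 100% = DMSO vehicle wells and lower values mean less viable spheroid.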

SMILES: CCN1C(C(=O)NC23CCC(C(=O)O)(CC2)CC3)C(c2cccc(Cl)c2F)C2(C(=O)Nc3cc(Cl)ccc32)C12CCCCC2 (stereo unspecified) + CNC(C)C(=O)NC1CN(S(=O)(=O)c2cccc(S(=O)(=O)N3CCC4CCC(C(=O)NC(c5ccccc5)c5ccccc5)N4C(=O)C(NC(=O)C(C)NC)C3)c2)CCC2CCC(C(=O)NC(c3ccccc3)c3ccccc3)N2C1=O
- IC50 [1]: > 3000 nM
- IC50 [2]: > 3000 nM
- IC50 [3]: > 3000 nM
- IC50 [4]: > 3000 nM
- IC50 [5]: > 3000 nM
- IC50 [6]: > 3000 nM
- viability, T/C (second compound 0.00316 µM, first compound 0.00949 µM): 92%
- viability, T/C (second compound 0.00316 µM, first compound 0.03 µM): 118%
- viability, T/C (second compound 0.00316 µM, first compound 0.0949 µM): 111%
- viability, T/C (second compound 0.00316 µM, first compound 0.3 µM): 83.8%
- viability, T/C (second compound 0.00316 µM, first compound 0.949 µM): 108%
- viability, T/C (second compound 0.00316 µM, first compound 3 µM): 65.8%
- viability, T/C (second compound 0.01 µM, first compound 0.00949 µM): 101%
- viability, T/C (second compound 0.01 µM, first compound 0.03 µM): 106%
- viability, T/C (second compound 0.01 µM, first compound 0.0949 µM): 112%
- viability, T/C (second compound 0.01 µM, first compound 0.3 µM): 80.1%
- viability, T/C (second compound 0.01 µM, first compound 0.949 µM): 89.2%
- viability, T/C (second compound 0.01 µM, first compound 3 µM): 82.6%
- viability, T/C (second compound 0.0316 µM, first compound 0.00949 µM): 96.4%
- viability, T/C (second compound 0.0316 µM, first compound 0.03 µM): 73.9%
- viability, T/C (second compound 0.0316 µM, first compound 0.0949 µM): 122%
- viability, T/C (second compound 0.0316 µM, first compound 0.3 µM): 94%
- viability, T/C (second compound 0.0316 µM, first compound 0.949 µM): 83.5%
- viability, T/C (second compound 0.0316 µM, first compound 3 µM): 82.1%
- viability, T/C (second compound 0.1 µM, first compound 0.00949 µM): 94.7%
- viability, T/C (second compound 0.1 µM, first compound 0.03 µM): 73.8%
- viability, T/C (second compound 0.1 µM, first compound 0.0949 µM): 82.1%
- viability, T/C (second compound 0.1 µM, first compound 0.3 µM): 93.2%
- viability, T/C (second compound 0.1 µM, first compound 0.949 µM): 80.1%
- viability, T/C (second compound 0.1 µM, first compound 3 µM): 89.6%
- viability, T/C (second compound 0.316 µM, first compound 0.00949 µM): 96%
- viability, T/C (second compound 0.316 µM, first compound 0.03 µM): 115%
- viability, T/C (second compound 0.316 µM, first compound 0.0949 µM): 92.8%
- viability, T/C (second compound 0.316 µM, first compound 0.3 µM): 79.6%
- viability, T/C (second compound 0.316 µM, first compound 0.949 µM): 81.3%
- viability, T/C (second compound 0.316 µM, first compound 3 µM): 105%
- viability, T/C (second compound 1 µM, first compound 0.00949 µM): 78.9%
- viability, T/C (second compound 1 µM, first compound 0.03 µM): 84.7%
- viability, T/C (second compound 1 µM, first compound 0.0949 µM): 66.1%
- viability, T/C (second compound 1 µM, first compound 0.3 µM): 112%
- viability, T/C (second compound 1 µM, first compound 0.949 µM): 82.2%
- viability, T/C (second compound 1 µM, first compound 3 µM): 83.1%

SMILES: O=C(c1ccc(F)c(F)c1Nc1ccc(I)cc1F)N1CC(O)([C@@H]2CCCCN2)C1 + CNC(C)C(=O)NC1CN(S(=O)(=O)c2cccc(S(=O)(=O)N3CCC4CCC(C(=O)NC(c5ccccc5)c5ccccc5)N4C(=O)C(NC(=O)C(C)NC)C3)c2)CCC2CCC(C(=O)NC(c3ccccc3)c3ccccc3)N2C1=O
- IC50 [1]: 316 nM
- IC50 [2]: 224 nM
- IC50 [3]: 284 nM
- IC50 [4]: 241 nM
- IC50 [5]: 254 nM
- IC50 [6]: 268 nM
- viability, T/C (second compound 0.00316 µM, first compound 0.00316 µM): 119%
- viability, T/C (second compound 0.00316 µM, first compound 0.01 µM): 133%
- viability, T/C (second compound 0.00316 µM, first compound 0.0316 µM): 95.9%
- viability, T/C (second compound 0.00316 µM, first compound 0.1 µM): 111%
- viability, T/C (second compound 0.00316 µM, first compound 0.316 µM): 49.7%
- viability, T/C (second compound 0.00316 µM, first compound 1 µM): 13.8%
- viability, T/C (second compound 0.01 µM, first compound 0.00316 µM): 93.9%
- viability, T/C (second compound 0.01 µM, first compound 0.01 µM): 112%
- viability, T/C (second compound 0.01 µM, first compound 0.0316 µM): 74.7%
- viability, T/C (second compound 0.01 µM, first compound 0.1 µM): 86.2%
- viability, T/C (second compound 0.01 µM, first compound 0.316 µM): 34.6%
- viability, T/C (second compound 0.01 µM, first compound 1 µM): 18.8%
- viability, T/C (second compound 0.0316 µM, first compound 0.00316 µM): 121%
- viability, T/C (second compound 0.0316 µM, first compound 0.01 µM): 107%
- viability, T/C (second compound 0.0316 µM, first compound 0.0316 µM): 79.7%
- viability, T/C (second compound 0.0316 µM, first compound 0.1 µM): 101%
- viability, T/C (second compound 0.0316 µM, first compound 0.316 µM): 44.2%
- viability, T/C (second compound 0.0316 µM, first compound 1 µM): 14.3%
- viability, T/C (second compound 0.1 µM, first compound 0.00316 µM): 99.4%
- viability, T/C (second compound 0.1 µM, first compound 0.01 µM): 86.4%
- viability, T/C (second compound 0.1 µM, first compound 0.0316 µM): 107%
- viability, T/C (second compound 0.1 µM, first compound 0.1 µM): 84.5%
- viability, T/C (second compound 0.1 µM, first compound 0.316 µM): 39.2%
- viability, T/C (second compound 0.1 µM, first compound 1 µM): 13.5%
- viability, T/C (second compound 0.316 µM, first compound 0.00316 µM): 80.6%
- viability, T/C (second compound 0.316 µM, first compound 0.01 µM): 122%
- viability, T/C (second compound 0.316 µM, first compound 0.0316 µM): 86.8%
- viability, T/C (second compound 0.316 µM, first compound 0.1 µM): 79.2%
- viability, T/C (second compound 0.316 µM, first compound 0.316 µM): 43.5%
- viability, T/C (second compound 0.316 µM, first compound 1 µM): 16%
- viability, T/C (second compound 1 µM, first compound 0.00316 µM): 77.5%
- viability, T/C (second compound 1 µM, first compound 0.01 µM): 89.2%
- viability, T/C (second compound 1 µM, first compound 0.0316 µM): 117%
- viability, T/C (second compound 1 µM, first compound 0.1 µM): 79.7%
- viability, T/C (second compound 1 µM, first compound 0.316 µM): 45.4%
- viability, T/C (second compound 1 µM, first compound 1 µM): 18.6%

SMILES: CNC(C)C(=O)NC1CN(S(=O)(=O)c2cccc(S(=O)(=O)N3CCC4CCC(C(=O)NC(c5ccccc5)c5ccccc5)N4C(=O)C(NC(=O)C(C)NC)C3)c2)CCC2CCC(C(=O)NC(c3ccccc3)c3ccccc3)N2C1=O (stereo unspecified)
- IC50 (compound alone, run of 11/15/2022): > 1000 nM
- IC50 (curve of compound): > 1000 nM
